Target: human IDO1 (Homo sapiens, UniProt P14902)
Test: Assessment of human IDO-1 inhibitory activity in HEK cells (human IDO1/HEK293 cells, kynurenine read-out with Ehrlich reagent, absorbance 490 nm)
Assay type: cell-based
Design: expressed in transfected cells
Details: HEK Human IDO-1 cellular assay
Experimental: Exemplary compounds were tested for inhibition of IDO activity.
Assessment of Human IDO-1 Inhibitory Activity in HEK Cells
HEK293 cells were transfected with a pCDNA-based mammalian expression vector harboring human IDO1 cDNA (NM 002164.2) by electroporation. They were cultured in medium (DMEM with 10% FBS) containing 1 mg/ml G418 for two weeks. Clones of HEK293 cells that stably expressed human IDO1 protein were selected and expanded for IDO inhibition assay.
The human IDO1/HEK293 cells were seeded at 10,000 cells per 50 μL per well with RPMI/phenol red free media contains 10% FBS in a 384-well black wall clear bottom tissue culture plate (Matrix Technologies LLC) 100 nL of certain concentration of compound was then added to each well using ECHO liquid handling systems. The cells were incubated for 20 hours in 37° C. incubator with 5% CO2.
The compound treatments were stopped by adding trichloroacetic acid (Sigma-Aldrich) to a final concentration at 0.2%. The cell plate was further incubated at 50° C. for 30 minute. The equal volume supernatant (20 μL) and 0.2% (w/v) Ehrlich reagent (4-dimethylaminobenzaldehyde, Sigma-Aldrich) in glacial acetic acid were mixed in a new clear bottom 384-well plate. This plate was then incubated at room temperature for 30 minute. The absorbance at 490 nm was measured on Envision plate reader.
Compound IC50 values were calculated using the counts of 500 nM of a reference standard treatment as one hundred percent inhibition, and counts of no compound but DMSO treatment as zero percent inhibition.

Sequence of human IDO1 (P14902 whole entry): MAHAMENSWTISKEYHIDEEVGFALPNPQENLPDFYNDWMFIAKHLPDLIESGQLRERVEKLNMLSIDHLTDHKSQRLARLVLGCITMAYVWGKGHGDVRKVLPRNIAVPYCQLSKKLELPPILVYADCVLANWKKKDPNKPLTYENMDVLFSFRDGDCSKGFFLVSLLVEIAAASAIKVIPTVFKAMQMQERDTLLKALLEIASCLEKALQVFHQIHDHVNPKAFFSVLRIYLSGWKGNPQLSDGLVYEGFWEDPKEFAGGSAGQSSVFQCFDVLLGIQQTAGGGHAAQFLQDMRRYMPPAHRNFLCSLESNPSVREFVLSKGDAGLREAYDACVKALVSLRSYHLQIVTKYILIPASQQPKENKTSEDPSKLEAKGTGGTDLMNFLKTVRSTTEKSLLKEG

Compound | IC50 [nM]
CCC(CC(=O)O)c1cc(NC(=O)Nc2cnc(OC)nc2)c(N(CC(C)C)CC(C)C)cc1F (racemic) [Example 1140, (±)-3-(4-(Diisobutylamino)-2-fluoro-5-(3-(2-methoxypyrimidin-5-yl)ureido)phenyl)pentanoic acid] | < 5
COCC(CC(=O)O)c1ccc(N(CC(C)C)C2CCCCC2)c(NC(=O)Nc2ccccc2F)c1 (single isomer, unassigned) [1125 E2] | < 5
CCOc1ccc(NC(=O)Nc2cc(C(COC)CC(=O)O)ccc2N(CC(C)C)C2CCCCC2)c(F)c1 (single isomer, unassigned) [Example 1232, 3-(4-(Cyclohexyl(isobutyl)amino)-3-(3-(4-ethoxy-2-fluorophenyl)ureido)phenyl)-4-methoxybutanoic acid] | < 50
CCc1ccc(Nc2cc(C(CC)CC(=O)O)ccc2N2CCC[C@H]2C(C)(C)O)cc1 (single isomer, unassigned) [Example 819] | > 50
CC[C@H](CC(=O)O)c1ccc(N(CC)C2CCOCC2)c(Nc2ccc3nncn3c2)c1 (single isomer, unassigned) [Example 512] | > 50
CCC(CC(=O)O)c1cc(F)c(N(CC(C)C)CC(C)C)c(NC(=O)Cc2ccc(F)cc2F)c1 (single isomer, unassigned) [Example 1093 E2] | < 5
CCCN(c1ccc([C@@H](CC)CC(=O)O)cc1Nc1cnc(OC)nc1)C1CCOCC1 (single isomer, unassigned) [Example 540] | < 5
CC[C@H](CC(=O)O)c1ccc(N2C[C@@H](C)O[C@@H](C)C2)c(NC(=O)Nc2ccc(C)cc2)c1 (single isomer, unassigned) [Example 760] | > 50
CCOc1ncc(Nc2cc([C@H](CC)CC(=O)O)ccc2N(CC(C)(C)O)C2CCCCC2)cn1 (single isomer, unassigned) [Example 240] | < 50
COCC(CC(=O)O)c1ccc(N(CC2CC2)C2CCOCC2)c(Nc2ccc3nc(C)sc3c2)c1 (single isomer, unassigned) [Example 680, 3-(4-((cyclopropylmethyl) (tetrahydro-2H-pyran-4-yl)amino)-3-((2-methylbenzo[d]thiazol-6-yl)amino)phenyl)-4-methoxybutanoic acid] | < 50
CCN(c1ccc([C@@H](COC)CC(=O)O)cc1Nc1ccc2nc(C)sc2c1)C1CCOCC1 (single isomer, unassigned) [Example 377] | < 50
CCC(CC(=O)O)c1cc(F)c(N(CC(C)C)CC(C)C)c(NC(=O)Nc2ccc(C)c(F)c2)c1 (single isomer, unassigned) [982-1] | < 5
CC(CC(=O)O)c1ccc(N(CC(C)(C)O)C2CCCCC2)c(Nc2ccc(Cl)c(OCC(F)(F)F)c2)c1 (single isomer, unassigned) [Example 51, 3-(3-((4-chloro-3-(2,2,2-trifluoroethoxy)phenyl)amino)-4-(cyclohexyl(2-hydroxy-2-methylpropyl)amino)phenyl)butanoic acid] | > 50
CCN(c1ccc(C(C)(C)CC(=O)O)cc1NC(=O)Nc1ccc(C)cc1)C1CCOCC1 [Example 167, 3-(4-(Ethyl(tetrahydro-2H-pyran-4-yl)amino)-3-(3-(p-tolyl)ureido)phenyl)-3-methylbutanoic acid] | < 50
CC(CC(=O)O)c1ccc(N2C[C@@H](C)O[C@@H](C)C2)c(Nc2ccc(Cl)cc2)c1 (single isomer, unassigned) [Example 745] | < 50
CC[C@H](CC(=O)O)c1ccc(N2CCOC[C@@H]2C(C)C)c(Nc2ccc(Cl)cc2)c1 (single isomer, unassigned) [Example 89] | < 5
COCC(CC(=O)O)c1ccc(N(CC(C)C)C2CCOCC2)c(NC(=O)Nc2cc(C)on2)c1 (single isomer, unassigned) [Example 1213, 3-(4-(Isobutyl(tetrahydro-2H-pyran-4-yl)amino)-3-(3-(5-methylisoxazol-3-yl)ureido)phenyl)-4-methoxybutanoic acid] | > 50
CCC(CC(=O)O)c1ccc(N2CCC[C@H]2C(C)(C)F)c(Nc2ccc3nc(C)sc3c2)c1 (single isomer, unassigned) [Example 789] | > 50
CC[C@@H](CC(=O)O)c1ccc(N2CCC[C@H]2C(C)(C)F)c(Nc2ccc(Cl)cc2)c1 (single isomer, unassigned) [Example 788] | < 5
CC[C@@H](CC(=O)O)c1ccc(N2C[C@@H](C)O[C@@H](C)C2)c(NC(=O)Nc2ccc(C)cc2)c1 (single isomer, unassigned) [Example 754] | > 50
Cc1ccc(CC(=O)Nc2cc(C(CC(=O)O)C3CC3)ccc2N(CC(C)C)C2CCOCC2)cc1 (racemic) [Example 1208, (+/−)-3-Cyclopropyl-3-(4-(isobutyl(tetrahydro-2H-pyran-4-yl)amino)-3-(2-(p-tolyl)acetamido)phenyl)propanoic acid] | < 50
CC[C@H](CC(=O)O)c1ccc(N(CC)C2CCOCC2)c(Nc2ccn3nc(C)c(F)c3c2)c1 (single isomer, unassigned) [Example 513] | < 50
COCC(CC(=O)O)c1cc(F)c(N(CC(C)C)CC(C)C)c(NC(=O)Nc2cncnc2)c1 (single isomer, unassigned) [Example 1183, 3-(4-(Diisobutylamino)-3-fluoro-5-(3-(pyrimidin-5-yl)ureido)phenyl)-4-methoxybutanoic acid] | < 50

The remaining lines, values ahead:

IC50 [nM] | Compound
< 50 | CCc1cnc(Nc2cc([C@@H](CC)CC(=O)O)ccc2N(CC(C)(C)O)C2CCCCC2)nc1 (single isomer, unassigned) [Example 230]
< 5 | CC[C@H](CC(=O)O)c1ccc(N(CC)C2CCOCC2)c(Nc2ccc(OCC(F)(F)F)cc2)c1 (single isomer, unassigned) [Example 515]
< 5 | CCCN(c1ccc([C@@H](CC)CC(=O)O)cc1Nc1ccc(F)cc1)C1CCOCC1 (single isomer, unassigned) [Example 538]
< 5 | COCC(CC(=O)O)c1cc(F)c(N(CC(C)C)C2CCCCC2)c(NC(=O)Nc2ccc(OC)cc2F)c1 (single isomer, unassigned) [Example 1152, 3-(4-(Cyclohexyl(isobutyl)amino)-3-fluoro-5-(3-(2-fluoro-4-methoxyphenyl)ureido)phenyl)-4-methoxybutanoic acid]
> 50 | CCN(c1ccc([C@H](COC)CC(=O)O)cc1NC(=O)Nc1ccc(OC)nc1)C1CCOCC1 (single isomer, unassigned) [Example 437]
< 5 | COCC(CC(=O)O)c1ccc(N(CC(C)C)C2CCCCC2)c(NC(=O)Nc2ccc(OC)cc2F)c1 (single isomer, unassigned) [Example 1233, 3-(4-(Cyclohexyl(isobutyl)amino)-3-(3-(2-fluoro-4-methoxyphenyl)ureido)phenyl)-4-methoxybutanoic acid]
< 50 | CCC(CC(=O)O)c1cc(F)c(N(CC(C)C)CC(C)C)c(NC(=O)Nc2ccc(C)c(F)c2)c1 (racemic) [Example 974, (+/−)-3-(4-(diisobutylamino)-3-fluoro-5-(3-(3-fluoro-4-methylphenyl)ureido)phenyl)pentanoic acid]
< 5 | COCC(CC(=O)O)c1cc(F)c(N(CC(C)C)CC(C)C)c(NC(=O)Cc2ccc(C)cc2)c1 (single isomer, unassigned) [Example 1190, 3-(4-(Diisobutylamino)-3-fluoro-5-(2-(p-tolyl)acetamido)phenyl)-4-methoxybutanoic acid]
> 50 | CCC(CC(=O)O)c1ccc(N2CCC[C@@H]2COC)c(NC(=O)Cc2ccc(C)cc2)c1 (mixture of isomers) [Example 1143, (±)-3-(4-((R)-2-(Methoxymethyl)pyrrolidin-1-yl)-3-(2-(p-tolyl)acetamido)phenyl)pentanoic acid]
< 5 | CC[C@@H](CC(=O)O)c1ccc(N(CC)C2CCOCC2)c(Nc2ccc3nc(C)sc3c2)c1 (single isomer, unassigned) [Example 484]
< 5 | CCOc1ccc(NC(=O)Nc2cc(C(COC)CC(=O)O)cc(F)c2N(CC(C)C)C2CCCCC2)c(F)c1 (single isomer, unassigned) [Example 1157, 3-(4-(cyclohexyl(isobutyl)amino)-3-(3-(4-ethoxy-2-fluorophenyl)ureido)-5-fluorophenyl)-4-methoxybutanoic acid]
< 50 | CC(C)CN(c1ccc(C(C)CC(=O)O)cc1Nc1nc2ccccc2o1)C1CCOCC1 (single isomer, unassigned) [Example 968, 3-(3-(Benzo[d]oxazol-2-ylamino)-4-(isobutyl(tetrahydro-2H-pyran-4-yl)amino)phenyl)butanoic acid]
> 50 | COCC(CC(=O)OC)c1ccc(N(CC(C)C)C2CCC(OC)CC2)c(NC(=O)Nc2ccc(C)cc2)c1 (racemic) [Example 1005, (+/−)-Methyl 3-(4-(isobutyl((1R,4R)-4-methoxycyclohexyl)amino)-3-(3-(p-tolyl)ureido)phenyl)-4-methoxybutanoate]
< 5 | CC(C)CN(c1ccc(C(CC(=O)O)C2CC2)cc1NC(=O)Nc1ccc(Cl)cc1F)C1CCOCC1 (racemic) [Example 1198, (+/−)-3-(3-(3-(4-Chloro-2-fluorophenyl)ureido)-4-(isobutyl(tetrahydro-2H-pyran-4-yl)amino)phenyl)-3-cyclopropylpropanoic acid]

Source: US9790169B2, “IDO inhibitors” (BRISTOL-MYERS SQUIBB COMPANY, priority 2015, dated 2017)
